Test results: US12497396B2, “Nitrogen-containing heterocyclic derivatives, method therefor and application therefor as inhibitors of KRAS G12C for the treatment of cancers” (SHANGHAI HANSOH BIOMEDICAL CO., LTD., priority 2019, dated 2025)

Legend:
[1] = system: Mia PaCa-2 cells (KRAS G12C mutant cell line); test: Inhibition of Mia PaCa-2 cell proliferation (CellTiter-Glo, 72 h); assay type: cell-based, human; details: Homo sapiens
Text: (§1) As a preferred embodiment of the present disclosure, the detection method of NCI-H358 cell proliferation inhibitory activity and Mia PaCa-2 cell proliferation inhibitory activity is as follows: through cell culture, adding different concentrations of compound solutions to the cultured cells, continuing the culture for a period of time and measuring the cell proliferation; • further, the method of cell culture is: adjusting the cells to a suitable cell concentration with complete medium and spreading the cell suspension in well plates for culture; preferably, the culture conditions are 37° C., 5% CO2 incubator overnight; preferably, the cell suspension is spread in 96-well plates, 48-well plates, 24-well plates, 12-well plates or 6-well plates, more preferably 96-well plates; preferably, the suitable cell concentration is 1500-4000 cells/well, with 90 μL of cell suspension added to each well; • further, the compound solution is prepared with DMSO and may be further diluted with medium; preferably, the compound solution has a concentration gradient starting from 100 μM at 4-fold dilution, more preferably starting from 30 μM at 4-fold dilution, most preferably starting from 10 μM at 4-fold dilution; • further, the volume of the compound solution or solvent added to each well is 1-10 μL, preferably 10 μL; • further, after adding the compound solution, the conditions for continuing the culture are 37° C., 5% CO2 incubator; preferably, the culture time is 24-72 h, more preferably 72 h; • further, the method for measuring cell proliferation is MTT, CCK8, CellTiter-Glo; preferably the method is CellTiter-Glo; • further, the cell proliferation is read using a microplate reader, more preferably a BioTek Synergy H1 microplate reader.
(§2) When NCI-H358 or Mia PaCa-2 cells were cultured to the appropriate fusion level, the NCI-H358 or Mia PaCa-2 cells were collected, and the cells were adjusted to the appropriate cell concentration using a complete medium, and the cell suspension was spread in a 96-well plate, 90 μL per well, and placed in a 37° C., 5% CO2 incubator overnight; and compound solutions of different concentrations were prepared using DMSO and culture medium; and a solvent control was set, the compound solution was added to a 96-well plate, 10 μL per well, at 37° C. in a 5% CO2 incubator for 72 hours; CellTiter-Glo solution was added thereto and the mixture was mixed well by shaking, incubated for 10 min in the dark, and read by BioTek Synergy H1 microplate reader.
(§3) The luminescence signal values were used to calculate the inhibition rate, the concentration and the inhibition rate were fitted to a nonlinear regression curve using Graphpad Prism software, then the IC50 value was obtained.

[2] = system: NCI-H358 cells (KRAS G12C mutant cell line); test: Inhibition of NCI-H358 cell proliferation (CellTiter-Glo, 72 h); assay type: cell-based, human; details: Homo sapiens
Text: as §1, §2, §3

human KRAS G12C protein = target: T1, human KRAS G12C protein (Homo sapiens, UniProt P01116, G12C); test: Thermal shift: melting temperature of KRAS G12C protein; assay type: binding; details: for Tm (° C.): KRAS G12C protein 5.37 μM with compound 10 μM, 1 hour incubation
T1 construct: purchased Beijing SinoBiological Co., Ltd. 12259-H07E2
Procedure: A solution containing […] (pH 7.5), 1 mM DTT, 5×SYPRO Orange and 150 mM NaCl was prepared as the experimental buffer, and a final concentration of 5.37 μM human KRAS G12C protein was added thereto. […] After incubating at room temperature in the dark for 1 hour, the PCR tube was put into the PCR instrument, QuantStudio Software v1.3 was opened, and the melting temperature of KRAS G12C protein in different treatment groups was detected by melt curve function (heating from 25° C. to 95° C., 0.03° C./s). The experimental data file of PCR instrument was imported into thermal shift software, and the melting temperature (Tm) of each treatment group was obtained, and the change value of melting temperature (Δ Tm) was obtained by subtracting the Tm of DMSO solvent control group.

in vitro = in vitro ADME; details: 0.5 μM
Procedure: Animal or human whole blood was collected, then the blood was put into a test tube containing anticoagulant, centrifuged at 3500 rpm for 10 min, and the upper layer of pale yellow plasma was collected. • 2), 10 μM of tested compound (m/M/V=C)
The compound was weighed, the stock solution was prepared with DMSO and the working solution was prepared with 100 mM phosphate buffer. • 3), 10 μM of positive control (1) Propantheline (Propantheline Mr=449.4 Da)
• 1) 285 μL of plasma and 15 μL of 10 μM compound (tested compound) were added in turn in a 96-well plate, and incubated at 37° C. • 2) 40 μL was taken out at 0, 15, 30, 60, 90, 120 min, respectively, and 160 μL of acetonitrile termination solution containing internal standard was added. • 3) After centrifugation (3500 rpm, 10 min), 50 μL of supernatant was taken out, and then diluted with 50 μL DDH2O and injected to LC-MS/MS.
• Instrument: Shimadzu LC-20 AD • Chromatographic column: phenomenex Gemiu® C18 (50*4.6 mm, 5 μM particle size); • mobile phase: A: acetonitrile, B: 0.1% formic acid solution […], 2.0-2.1 min: 90% A→5% A; flow rate: 0.8 mL/min; running time: 5.0 min; injection volume: 5 μL.
• Instrument: API4000 Liquid Chromatography-Mass Spectrometry, AB, USA; • the ion source was electrospray ionization source (ESI); • the temperature of dry gas (N2) was 500° C.; • electrospray voltage was 5500V; • the detection method was positive ion detection; • the scanning mode was selective response monitoring (MRM). • the scanning time was 0.1 s.

[3] = compound 10 μM, Tm minus Tm of DMSO solvent control

C=CC(=O)N1CCN(c2nc(=O)n(-c3c(SC)ccnc3C(C)C)c3nc(-c4c(C)cccc4F)c(Cl)cc23)[C@@H](C)C1 [Embodiment 206, 4-((S)-4-acryloyl-2-methylpiperazin-1-yl)-6-chloro-7-(2-fluoro-6-methylphenyl)-1-(2-isopropyl-4-(methylthio)pyridin-3-yl) pyrido [2,3-d] pyrimidin-2 (1H)-one]
IC50 [1]: 14 nM

C=CC(=O)N1CCN(c2nc(=O)n(-c3c(C)ccnc3C(C)C)c3nc(-c4c(F)cccc4SC)c(F)cc23)[C@@H](C)C1 (single isomer, unassigned) [Embodiment 75-1]
IC50 [2]: 25 nM | IC50 [1]: 36 nM

C=CC(=O)N1CCN(c2nc(=O)n(-c3c(SC)ccnc3C(C)C)c3nc(-c4c(O)ccc(F)c4F)c(F)cc23)[C@@H](C)C1 [Embodiment 153, 4-((S)-4-acryloyl-2-methylpiperazin-1-yl)-7-(2,3-difluoro-6-hydroxyphenyl)-6-fluoro-1-(2-isopropyl-4-(methylthio)pyridin-3-yl) pyrido [2,3-d] pyrimidin-2 (1H)-one]
IC50 [2]: 68 nM | IC50 [1]: 76 nM

C=CC(=O)N1CCN(c2nc(=O)n(-c3c(C)ccnc3C(C)C)c3nc(-c4cccnc4SC)c(F)cc23)[C@@H](C)C1 [Embodiment 136, (S)-4-(4-acryloyl-2-methylpiperazin-1-yl)-6-fluoro-1-(2-isopropyl-4-methylpyridin-3-yl)-7-(2-(methylthio)pyridin-3-yl) pyrido [2,3-d] pyrimidin-2 (1H)-one]
Tm (° C.) (human KRAS G12C protein): 57.3 °C | ΔTm at 10 µM (human KRAS G12C protein; [3]): 8.7 °C

C=CC(=O)N1CCN(c2nc(=O)n(-c3c([S+](C)[O-])ccnc3C(C)C)c3nc(-c4c(N)c(Cl)cc(Cl)c4F)c(Cl)cc23)[C@@H](C)C1 (stereo partly drawn) [Embodiment 192, 4-((S)-4-acryloyl-2-methylpiperazin-1-yl)-7-(2-amino-3,5-dichloro-6-fluorophenyl)-6-chloro-1-(2-isopropyl-4-(methylsulfinyl)pyridin-3-yl) pyrido [2,3-d] pyrimidin-2 (1H)-one]
IC50 [2]: 29 nM | IC50 [1]: 13 nM

C=CC(=O)N1C[C@H](C)N(c2nc(=O)n(-c3c(SC)ccnc3C(C)C)c3nc(-c4c(N)c(F)cc(Cl)c4F)c(Cl)cc23)C[C@H]1C [Embodiment 196, 4-((2S, 5R)-4-acryloyl-2,5-dimethylpiperazin-1-yl)-7-(2-amino-5-chloro-3,6-difluorophenyl)-6-chloro-1-(2-isopropyl-4-(methylthio)pyridin-3-yl) pyrido [2,3-d] pyrimidin-2 (1H)-one]
IC50 [1]: 5.3 nM

C=CC(=O)N1CCN(c2nc(=O)n(-c3c(SC)ccnc3C(C)C)c3nc(-c4c(N)c(C)cc(F)c4F)c(Cl)cc23)[C@@H](C)C1 [Embodiment 195, 4-((S)-4-acryloyl-2-methylpiperazin-1-yl)-7-(2-amino-5,6-difluoro-3-methylphenyl)-6-chloro-1-(2-isopropyl-4-(methylthio)pyridin-3-yl) pyrido [2,3-d] pyrimidin-2 (1H)-one]
IC50 [1]: 5.2 nM

CC(C)[N+](C)(CCOC(=O)C1c2ccccc2Oc2ccccc21)C(C)C [Propantheline, reference compound]
Residual rate (%) 0 min (in vitro; human): 100.00% | Residual rate (%) 15 min (in vitro; human): 79.98% | Residual rate (%) 30 min (in vitro; human): 50.52% | Residual rate (%) 60 min (in vitro; human): 14.65% | Residual rate (%) 120 min (in vitro; human): 0.72% | Residual rate (%) 0 min (in vitro; mouse): 100.00% | Residual rate (%) 15 min (in vitro; mouse): 79.79% | Residual rate (%) 30 min (in vitro; mouse): 48.66% | Residual rate (%) 60 min (in vitro; mouse): 23.39% | Residual rate (%) 120 min (in vitro; mouse): 6.66%

C=CC(=O)N1C[C@H](C)N(c2nc(=O)n(-c3c(SC)ccnc3C(C)C)c3nc(-c4c(N)c(Cl)cc(Cl)c4F)c(Cl)cc23)C[C@H]1C [Embodiment 193, 4-((2S, 5R)-4-acryloyl-2,5-dimethylpiperazin-1-yl)-7-(2-amino-3,5-dichloro-6-fluorophenyl)-6-chloro-1-(2-isopropyl-4-(methylthio)pyridin-3-yl) pyrido [2,3-d] pyrimidin-2 (1H)-one]
IC50 [1]: 18 nM

C=CC(=O)N1C[C@H](C)N(c2nc(=O)n(-c3c(SC)ccnc3C(C)C)c3nc(-c4c(N)c(C)cc(F)c4F)c(Cl)cc23)C[C@H]1C [Embodiment 201, 4-((2S, 5R)-4-acryloyl-2,5-dimethylpiperazin-1-yl)-7-(2-amino-5,6-difluoro-3-methylphenyl)-6-chloro-1-(2-isopropyl-4-(methylthio)pyridin-3-yl) pyrido [2,3-d] pyrimidin-2 (1H)-one]
IC50 [1]: 4.9 nM

C=CC(=O)N1CCN(c2nc(=O)n(-c3c(C)ccnc3C(C)C)c3nc(-c4c(F)cccc4C(=O)N(C)C)c(F)cc23)[C@@H](C)C1 [Embodiment 73]
Tm (° C.) (human KRAS G12C protein): 55.5 °C | ΔTm (° C.) (human KRAS G12C protein; [3]): 6.9 °C

C=CC(=O)N1[C@H](C)CN(c2nc(=O)n(-c3c(SC)ccnc3C(C)C)c3nc(-c4c(O)cccc4F)c(F)cc23)C[C@@H]1C [Embodiment 115, 4-((3S, 5R)-4-acryloyl-3,5-dimethylpiperazin-1-yl)-6-fluoro-7-(2-fluoro-6-hydroxyphenyl)-1-(2-isopropyl-4-(methylthio)pyridin-3-yl) pyrido [2,3-d] pyrimidin-2 (1H)-one]
Tm (° C.) (human KRAS G12C protein): 55.2 °C | ΔTm at 10 µM (human KRAS G12C protein; [3]): 6.6 °C

C=CC(=O)N1CCN(c2nc(=O)n(-c3c(SC)ccnc3C(C)C)c3nc(-c4c(F)cccc4Cl)c(Cl)cc23)[C@@H](C)C1 [Embodiment 208, 4-((S)-4-acryloyl-2-methylpiperazin-1-yl)-6-chloro-7-(2-chloro-6-fluorophenyl)-1-(2-isopropyl-4-(methylthio)pyridin-3-yl) pyrido [2,3-d] pyrimidin-2 (1H)-one]
IC50 [1]: 59 nM

C=CC(=O)N1CCN(c2nc(=O)n(-c3c(SC)ccnc3C(C)C)c3nc(-c4c(N)c(F)cc(Cl)c4F)c(Cl)cc23)[C@@H](C)C1 [Embodiment 194, 4-((S)-4-acryloyl-2-methylpiperazin-1-yl)-7-(2-amino-5-chloro-3,6-difluorophenyl)-6-chloro-1-(2-isopropyl-4-(methylthio)pyridin-3-yl) pyrido [2,3-d] pyrimidin-2 (1H)-one]
IC50 [1]: 7 nM

C=CC(=O)N1CCN(c2nc(=O)n(-c3c(SC)ccnc3C(C)C)c3nc(-c4c(F)ccc(F)c4N)c(Cl)cc23)[C@@H](C)C1 [Embodiment 198, 4-((S)-4-acryloyl-2-methylpiperazin-1-yl)-7-(2-amino-3,6-difluorophenyl)-6-chloro-1-(2-isopropyl-4-(methylthio)pyridin-3-yl)pyrido[2,3-d]pyrimidin-2(1H)-one]
IC50 [1]: 6 nM
